Data set [1] has as its target T1, 5-HT2A receptor (Homo sapiens (Human), UniProt P28223). To be noted: Blair, Drugs, 2020; cited from earlier work.
The next data set has as its system C57B6 male mice. Briefly: Freezing behavior test. Type of data set: in vivo. To be noted: 10 mg/kg. The protocol: Experimental method: The experimental animals were C57B6 male mice, n=8 in each group. Mice were first injected with different compounds, and after a certain period of time (30 min or 60 min), the mice were in an upright and unnatural state by placing their forelimbs on a high glass hanging rod (about 5 cm from the ground). Then the time for the mice to maintain this state was measured, and the length of time was used to determine the freezing effect of the drug on the mice.

For data set [2], the target named is T1, 5-HT2A receptor. In words: Radioligand competition binding, affinity for 5-HT2A receptor ([3H]-ketanserin). The protocol: The affinity of the compounds of the present invention for the 5-HT2A receptors was determined by the method of radioligand competition experiment. In the first step, a cell membrane component containing specific 5-HT2A receptor was prepared. A 10 cm dish was used for transfection with 10 ng of the 5-HT2A receptor and 40 μL of PEI. […] A vacuum pump was used to suck off the culture medium, 3 mL of lysis buffer was added to each well, and the cells were placed in a 4° C. freezer for 10 minutes. After the cells were detached, the cells were transferred to a 15 mL centrifuge tube and centrifuged at 1500 rpm for 5 minutes at 4° C., and the supernatant was discarded. The cell pellet was transferred to a tissue homogenizer, and 3 mL of lysis buffer was added and fully ground until the cells were broken. Then, cell suspension was equally divided into several EP tubes, centrifuged at 4° C. and 12000 rpm for 5 min, and the supernatant was discarded. The precipitate was the cell membrane component containing the 5-HT2A receptor. […] First, a standard binding buffer was added to the cell membrane component containing the 5-HT2A receptor, and the cell membrane was disrupted and resuspended with an electric tissue homogenizer. 30 μL of membrane protein suspension was added to each well of a 96-well plate. Then, 30 μL of different drugs were added to the 96-well plate from left to right to ensure that the final drug concentrations were 10^−5 M, 10^−6 M, 10^−7 M, 10^−8 M, 10^−9 M and 0 M, with two replicates per treatment. Next, 30 μL [^3H]-ketanserin was added to each well of the 96-well plate. The plate was incubated for 2 hours at room temperature in the dark. Detection. The machine reading value reflected the amount of [^3H]-ketanserin bound on the membrane, and after further data processing, the affinity Ki value of different compounds for 5-HT2A receptor was obtained.

For data set [3], the target named is T2, dopamine D2 receptors (Homo sapiens (Human), UniProt P14416). Briefly: β-arrestin2 recruitment BRET, dopamine D2 receptor functional activity. The data set is classed as cell-based.
T2 sequence (P14416 whole entry): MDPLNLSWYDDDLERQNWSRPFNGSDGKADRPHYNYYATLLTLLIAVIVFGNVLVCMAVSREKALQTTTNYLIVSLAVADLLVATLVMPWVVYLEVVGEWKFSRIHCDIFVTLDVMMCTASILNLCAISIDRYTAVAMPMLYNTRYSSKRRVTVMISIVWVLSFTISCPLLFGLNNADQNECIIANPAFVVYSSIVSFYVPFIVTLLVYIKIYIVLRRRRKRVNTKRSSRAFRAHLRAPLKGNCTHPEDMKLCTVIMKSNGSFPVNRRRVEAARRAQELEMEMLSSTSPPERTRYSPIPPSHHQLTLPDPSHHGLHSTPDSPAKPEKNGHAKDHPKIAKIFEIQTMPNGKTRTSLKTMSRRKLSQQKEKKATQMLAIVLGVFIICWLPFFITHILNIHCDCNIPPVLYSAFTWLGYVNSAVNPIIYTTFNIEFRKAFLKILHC
In data set [4] the target is T2, dopamine D2 receptors. Briefly: Radioligand competition binding, affinity for dopamine D2 receptors ([3H]-Methylspiperone). The protocol: A 10 cm diameter dish was used for transfection with 10 ng of the dopamine D2 receptors and 40 μL of PEI. After 48 hours, the 10 cm dish was taken out from the cell culture room and the cultured cells had expressed the dopamine D2 receptors. A vacuum pump was used to suck off the culture medium, 3 mL of lysis buffer (50 mM Tris hydrochloric acid buffer, pH 7.4) was added to each well, and the cells were placed in a 4° C. freezer for 10 minutes. After the cells were detached, the cells were transferred to a 15 mL centrifuge tube and centrifuged at 1500 rpm for 5 minutes at 4° C., and the supernatant was discarded. The cell pellet was transferred to a tissue homogenizer, and 3 mL of lysis buffer was added and fully ground until the cells were broken. Then, cell suspension was equally divided into several EP tubes, centrifuged at 4° C. and 12000 rpm for 5 min, and the supernatant was discarded. The precipitate was the cell membrane component containing the dopamine D2 receptors and stored at −80° C.
First, a standard binding buffer (50 mM HEPES, 50 mM NaCl, 5 mM MgCl2, 0.5 mM EDTA, pH 7.4) was added to the cell membrane component containing the dopamine D2 receptors, and the cell membrane was disrupted and resuspended with an electric tissue homogenizer. 30 μL of membrane protein suspension was added to each well of a 96-well plate. Then, 30 μL of different drugs were added to the 96-well plate from left to right to ensure that the final drug concentrations were 10^−5 M, 10^−6 M, 10^−7 M, 10^−8 M, 10^−9 M and 0 M, with two replicates per treatment. Next, 30 μL [^3H]-N-Methylspiperone was added to each well of the 96-well plate, and the plate was incubated for 2 hours at room temperature in the dark. The unbound isotopes were removed by Whatman GF/C filter membrane and vacuum pump, and the isotopes bound to the receptors were detected by MicroBeta isotope liquid scintillation counter.
The affinity of the compounds of the present invention for the dopamine D2 receptors was determined by the method of radioligand competition experiment. In the first step, a cell membrane component containing specific dopamine D2 receptors was prepared. A10 cm dish was used for transfection with 10 ng of the dopamine D2 receptors and 40 μL of PEI. After 48 hours, the 10 cm dish was taken out from the cell culture room and the cultured cells had expressed the dopamine D2 receptors. A vacuum pump was used to suck off the culture medium, 3 mL of lysis buffer was added to each well, and the cells were placed in a 4° C. freezer for 10 minutes. After the cells were detached, the cells were transferred to a 15 mL centrifuge tube and centrifuged at 1500 rpm for 5 minutes at 4° C., and the supernatant was discarded. The cell pellet was transferred to a tissue homogenizer, and 3 mL of lysis buffer was added and fully ground until the cells were broken. Then, cell suspension was equally divided into several EP tubes, centrifuged at 4° C. and 12000 rpm for 5 min, and the supernatant was discarded. The precipitate was the cell membrane component containing the dopamine D2 receptors. […] First, a standard binding buffer was added to the cell membrane component containing the dopamine D2 receptors, and the cell membrane was disrupted and resuspended with an electric tissue homogenizer. 30 μL of membrane protein suspension was added to each well of a 96-well plate. Then, 30 μL of different drugs were added to the 96-well plate from left to right to ensure that the final drug concentrations were 10^−5 M, 10^−6 M, 10^−7 M, 10^−8 M, 10^−9 M and 0 M, with two replicates per treatment. Next, 30 μL [^3H]-Methylspiperone was added to each well of the 96-well plate. The plate was incubated for 2 hours at room temperature in the dark. Detection. The machine reading value reflected the amount of [^3H]-Methylspiperone bound on the membrane, and after further data processing, the affinity Ki value of different compounds for dopamine D2 receptors was obtained.

Data set [5] concerns the target T2, dopamine D2 receptors. Briefly: G protein Gαi1-γ9 dissociation BRET, dopamine D2 receptor functional activity. The data set is classed as cell-based.

T1 sequence (P28223 whole entry): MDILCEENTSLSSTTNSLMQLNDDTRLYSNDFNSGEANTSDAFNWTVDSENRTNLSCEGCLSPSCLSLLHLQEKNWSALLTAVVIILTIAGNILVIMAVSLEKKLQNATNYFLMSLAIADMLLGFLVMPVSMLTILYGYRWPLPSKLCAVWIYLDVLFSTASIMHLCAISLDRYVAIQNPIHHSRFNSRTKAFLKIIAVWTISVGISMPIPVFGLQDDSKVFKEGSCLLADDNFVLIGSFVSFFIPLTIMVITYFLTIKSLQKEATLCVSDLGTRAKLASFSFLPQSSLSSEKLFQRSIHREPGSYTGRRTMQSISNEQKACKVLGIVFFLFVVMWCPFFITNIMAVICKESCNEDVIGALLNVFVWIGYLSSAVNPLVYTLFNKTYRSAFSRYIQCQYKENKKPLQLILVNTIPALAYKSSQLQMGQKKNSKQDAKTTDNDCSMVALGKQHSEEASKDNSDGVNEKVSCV

For the compound `CN1CCN2c3c(cccc31)[C@@H]1CN(CCCC(=O)c3ccc(F)cc3)CC[C@@H]12` [Lumateperone], at 5-HT2A receptor [1], the “affinity for 5-HT2A receptors relative to that for D2 receptors” value was “about 60 times”.

For the compound `O=C(CCCN1CCC(O)(c2ccc(Cl)cc2)CC1)c1ccc(F)cc1` [Haloperidol, reference compound], the Freezing time with C57B6 male mice (30 minutes after administration) is 61.05 ± 3.239 s; in the data set with C57B6 male mice (60 minutes after administration) it was 53.19 ± 2.443 s.

For `O=c1ccc2ccc(OCCCCN3CCN4c5cccc6[nH]cc(c56)CC4C3)cc2[nH]1` (stereo not drawn) [Compound I-2, 7-(4(4,6,6a,7,9,10-hexahydro-8H-pyrazino[1,2-a]pyrrolo[4,3,2-de]quinolin-8-yl)butoxy)quinolin-2(1H)-one], on 5-HT2A receptor [2], the “affinity for 5-HT2A receptor (in words)” value is “very weak affinity”.

As to `CN(C)C(=O)N[C@H]1CC[C@H](CCN2CCN3c4cccc5[nH]cc(c45)CC3C2)CC1` (stereo partly drawn) [Compound I-10, 3-(4-(2-(4,6,6a,7,9,10-hexahydro-8H-pyrazino[1,2-a]pyrrolo[4,3,2-de]quinolin-8-yl)ethyl)trans-cyclohexyl)-1,1-dimethylurea], the “affinity for 5-HT2A receptor (in words)” value on 5-HT2A receptor [2] is “very weak affinity”. Besides, the Ki on 5-HT2A receptor [2] ([3H]-ketanserin, HEK-293T membranes) came to 2370 nM; on dopamine D2 receptors [4], 50.6 nM. In addition, the EC50 is 6.61 nM on dopamine D2 receptors [3] (HEK-293T, I-1 to 19 n=3, I-20 to 27 single determination, read-out: β-arrestin2 BRET EC50) and 3.89 nM on dopamine D2 receptors [5] (HEK-293T, I-1 to 19 n=3, I-20 to 27 single determination, read-out: Gai1 BRET EC50). Also, the results for the Emax at dopamine D2 receptors [3] (read-out: β-arrestin2 BRET Emax % ± SEM) and at dopamine D2 receptors [5] (read-out: Gai1 BRET Emax % ± SEM) were 84% and 80%, respectively. For the same compound, the “Affinity pKi ± SEM” value on dopamine D2 receptors [4] is reported as “(7.30 ± 0.08)”.
